The source of these data is patent US7122173B2, “Agent for the treatment of bladder irritative symptoms accompanied by benign prostatic hyperplasia” (Kyowa Hakko Kogyo Co., Ltd., priority 2001, dated 2006).

The test system of series [1] is dd male mice. The following applies: mouse, in vivo, po, 7 day. Here is the method: The test compound was administered orally or intraperitoneally to 3 animals per group of dd male mice (body weight, 20±1 g). Minimum lethal dose (MLD) value was obtained by observing mortality on the 7th day after the administration.
For series [2], the system named is DRG cells. The series can be described thus: Current clamp, changes in membrane potential in DRG cells. The format is cell-based, rat. The following applies: control (0 mol/L) −47.95 ± 0.22. On the procedure: Experiments were performed on adult female Sprague Dawley rats. A […] population of DRG neurons that innervate the urinary bladder were labeled by retrograde axonal transport of the fluorescent dye, Fast Blue (4% w/v) (Polyloy, Gross Umstadt, Germany) injected into the wall of the bladder in halothane-anesthetized animals 7 days before the dissociation. The dye was injected with a 28 gauge needle at three to six sites on the dorsal surface of the organ (5–6 μL per site, total volume of 20–30 μL). Each injection site was washed with saline to minimize contamination of adjacent organs with the dye.
Freshly dissociated neurons from DRG were prepared from halothane-anesthetized animals. L6 and S1 DRG were dissected from animals and then dissociated in a shaking bath for 25 minutes at 35° C. with 5 mL DMEM (Sigma) containing 0.3 mg/mL trypsin (Type 3, Sigma), 1 mg/mL collagenase (Type 1, Sigma), and 0.1 mg/ML deoxyribonuclease (Type 4, Sigma). Trypsin inhibitor (Type 2a, Sigma) was then added thereto to neutralize the activity of trypsin. Individual DRG cell bodies were isolated by trituration and then plated on a poly-L-lysine-coated 35 mm Petri dishes.
Dye-labeled primary afferent neurons that innervate the urinary bladder were identified using an inverted phase-contrast microscope (Nikon, Tokyo, Japan) with fluorescent attachments (UV-1A filter; excitation wavelength, 365 nm). Gigaohm-seal whole-cell recordings were performed within 6–8 hours after cell dissociation at room temperature (20–22° C.) on each labeled neuron in a culture dish that usually contained three to seven labeled cells among a few hundred unlabeled neurons. The internal solution contained (in mmol/L): KCl 140, CaCl2 1, MgCl2 2, EGTA 11, HEPES 10, Mg-ATP 2, and Tris-GTP 0.4 adjusted to pH 7.4 with KOH. Patch electrodes had resistances of 1–4 M Ω when filled with the internal solution. Neurons were superfused at a flow rate of 1.5 mL/minutes with an external solution containing (in mmol/L): NaCl 150, KCl 5, CaCl2 2.5, MgCl2 1, HEPES 10, and D-glucose 10, adjusted to pH 7.4 with NaOH. All recordings were made with an Axopatch-1D patch-clamp amplifier (Axon Instruments, Foster City, Calif.), and data were acquired and analyzed by PCLAMP software (Axon Instruments).
In current-clamp recordings, membrane potential of DRG cell were measured before and after compound applications. The membrane potentials were normalized to control (before addition of the compound).

Regarding `C[C@](O)(C(=O)Nc1cccc2c1C(=O)c1sccc1CS2(=O)=O)C(F)(F)F` [Compound 1, (S)-(+)-N-(5,5-dioxido-10-oxo-4,10-dihydrothieno[3,2-c][1]benzothiepin-9-yl)-3,3,3-trifluoro-2-hydroxy-2-methylpropanamide], in series [1], the “Minimum lethal dose (MLD)” value was > 1,000 mg/kg. The Membrane potential in series [2] (Compound 1 1.0 × 10^−6 mol/L) was −53.67 ± 0.74 mV; in series [2] (Compound 1 1.0 × 10^−7 mol/L), −57.17 ± 0.53 mV; in series [2] (Compound 1 1.0 × 10^−8 mol/L) it was −49.80 ± 0.65 mV; in series [2] (Compound 1 1.0 × 10^−9 mol/L), −48.10 ± 0.48 mV; in series [2] (Compound 1 5.0 × 10^−4 mol/L), −42.67 ± 1.46 mV; in series [2] (Compound 1 5.0 × 10^−5 mol/L) it was −48.50 ± 1.28 mV. In addition, in series [2] (Compound 1 5.0 × 10^−6 mol/L), the Membrane potential is reported as −50.50 ± 0.88 mV.
